According to patent US6677316B2, “Adenosine derivatives and methods of administration” (SmithKline Beecham Corporation, priority 1998, dated 2004):

What was measured:
[1] = biological target: T1, human adenosine A3 receptor (Homo sapiens, UniProt P0DMS8); assay: Reporter gene assay (CRE/SPAP) in CHO cells, agonist potency relative to NECA, adenosine A3 receptor; type: cell-based; set-up: key: equipotent concentration ratio, NECA = 1; conditions: ECR = equipotent concentration ratio relative to NECA = 1, inhibition of forskolin-stimulated SPAP production
T1 construct: expressed in transfected cells; host or cells: Chinese hamster ovary (CHO) cells with CRE/SPAP/HYG reporter elements
T1 sequence (P0DMS8 1-318): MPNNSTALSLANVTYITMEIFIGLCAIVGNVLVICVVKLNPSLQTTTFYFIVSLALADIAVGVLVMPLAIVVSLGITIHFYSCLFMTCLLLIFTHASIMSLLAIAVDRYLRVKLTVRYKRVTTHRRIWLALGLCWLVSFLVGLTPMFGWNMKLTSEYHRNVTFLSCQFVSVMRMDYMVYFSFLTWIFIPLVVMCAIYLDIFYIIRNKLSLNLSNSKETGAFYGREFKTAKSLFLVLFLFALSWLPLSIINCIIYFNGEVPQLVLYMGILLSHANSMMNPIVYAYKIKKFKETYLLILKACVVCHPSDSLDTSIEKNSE
Procedure: (§1) Reporter Gene Experiments
(§2) Agonist activity was measured in Chinese hamster ovary (CHO) cells containing the CRE/SPAP/HYG (CRE=cyclic AMP response element; HYG=hygromycin resistance; SPAP=secreted placental alkaline phosphatase) reporter gene elements, which upon stimulation of cAMP levels produced SPAP. A cell line was used, which was stably transfected with either the human adenosine A1 receptor or the human adenosine A3 receptor in addition to the above elements. Cells were plated out in 96-well plates in culture medium and incubated at 37° C. for 1 hour. For measurement of potency, agonists were added to the appropriate wells at a concentration range of approximately 10^−10- 10^−5M. 15Min later, cAMP levels were stimulated by addition of a maximal concentration of forskolin. All cells were then incubated for a further 5 hours at 37° C., and cooled to room temperature, after which a substrate for the phosphatase (para-nitrophenol phosphate, pNPP), which is converted by SPAP to a coloured reagent) was then added and the 96-well -plates were read in a plate reader. From these readings, the concentration-dependence of the inhibition by the agonist for forskolin-stimulated SPAP production can be calculated. One of the agonists tested on each 96-well plate was the standard non-selective agonist, N-ethylcarboxamidoadenosine (NECA), and the potency of all test agonists is expressed relative to that of the NECA standard.
(§3) (ECR=equipotent concentration ratio relative to NECA=1)

[2] = biological target: T2, human adenosine A1 receptor (Homo sapiens, UniProt P30542); assay: Reporter gene assay (CRE/SPAP) in CHO cells, agonist potency relative to NECA, adenosine A1 receptor; type: cell-based; set-up: key: equipotent concentration ratio, NECA = 1; conditions: ECR = equipotent concentration ratio relative to NECA = 1, inhibition of forskolin-stimulated SPAP production
T2 construct: expressed in transfected cells; host or cells: Chinese hamster ovary (CHO) cells with CRE/SPAP/HYG reporter elements
T2 sequence (P30542 1-326): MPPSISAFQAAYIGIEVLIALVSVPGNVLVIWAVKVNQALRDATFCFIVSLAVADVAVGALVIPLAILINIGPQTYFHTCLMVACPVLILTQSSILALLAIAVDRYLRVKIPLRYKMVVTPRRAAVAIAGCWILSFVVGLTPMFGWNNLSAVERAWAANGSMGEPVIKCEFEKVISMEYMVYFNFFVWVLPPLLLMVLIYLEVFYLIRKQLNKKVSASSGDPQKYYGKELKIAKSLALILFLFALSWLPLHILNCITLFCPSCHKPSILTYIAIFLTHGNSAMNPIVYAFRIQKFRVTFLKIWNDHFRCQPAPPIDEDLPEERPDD
Procedure: as §1, §2, §3

Compound	Adenosine A3 receptor ECR* [1]	Adenosine A1 receptor ECR* [2]
CC(C)c1nnc([C@H]2O[C@@H](n3cnc4c(NC5CCOCC5)ncnc43)[C@H](O)[C@@H]2O)[nH]1 [Example 141, (2R,3S,4R,5R)-2-(5-isopropyl-4H-1,2,4-triazol-3-yl)-5-[6-(tetrahydro-2H-pyran-4-ylamino)-9H-purin-9-yl]tetrahydrofuran-3,4-diol]	228	12.08
Cc1cnc([C@H]2O[C@@H](n3cnc4c(Nc5ccc(F)cc5Cl)nc(Cl)nc43)[C@H](O)[C@@H]2O)o1 [Example 143, (2R,3R,4S,5S)-2-[2-chloro-6-(2-chloro-4-fluoroanilino)-9H-purin-9-yl]-5-(5-methyl-1,3-oxazol-2-yl)tetrahydrofuran-3,4-diol]	>74.1	19.6
CCc1cc([C@H]2O[C@@H](n3cnc4c(NC(CC)CC)nc(Cl)nc43)[C@H](O)[C@@H]2O)no1.O=CO [Example 163, (2R,3R,4S,5R)-2-{2-chloro-6-[(1-ethylpropyl)amino]-9H-purin-9-yl}-5-(5-ethylisoxazol-3-yl)tetrahydrofuran-3,4-diol Formate]	232	1.34
CCNS(=O)(=O)CCNc1ncnc2c1ncn2[C@@H]1O[C@H](c2cc(C(C)(C)C)no2)[C@@H](O)[C@H]1O [Example 177, 2-[(9-{(2R,3R,4S,5S)-5-[3-(tert-butyl)isoxazol-5-yl]-3,4-dihydroxy-tetrahydrofuran-2-yl}-9H-purin-6-yl)amino]-N-ethylethane-sulfonamide]	122	2.01
O[C@@H]1[C@H](O)[C@@H](c2nnc(C(F)(F)F)o2)O[C@H]1n1cnc2c(NC3CCCC3)ncnc21 [Example 178, (2R,3R,4S,5S)-2-[6-(cyclo-pentylamino)-9H-purin-9-yl]-5-[5-(trifluoromethyl)-1,3,4-oxadiazol-2-yl]-tetrahydrofuran-3,4-diol]	>471	7.42
CCOC(=O)N1CCC(Nc2ncnc3c2ncn3[C@@H]2O[C@H](c3nnc(C(F)(F)F)o3)[C@@H](O)[C@H]2O)CC1 [Example 180, ethyl 4-[(9-{(2R,3R,4S,5S)-3,4-dihydroxy-5-[5-(trifluoromethyl)-1,3,4-oxadiazol-2-yl]-tetrahydrofuran-2-yl}-9H-purin-6-yl)amino]-piperidine-1-carboxylate]	>471	18.1
